The values that follow come from patent US6310247A, “7-aryl-6(Z)-heptatrienoic acid retinamides” (Hoffmann-LA Roche Inc., priority 1999, dated 2001).

In one data set the test system is tumor cells. As to conditions: cited from earlier work; for Differentiation of certain tumor cells (in words): in vitro.
The next data set relates to ZR-75-1 cells. The data set can be described thus: Apoptosis: cell death detection by ELISA, ZR-75-1. The data set is classed as cell-based, human. As to conditions: for fold induction at 1 µM / fold induction at 3.3 µM / fold induction at 10 µM: Homo sapiens. The procedure: ER+ breast carcinoma, human (ZR-75-1) obtained from ATCC (CRL 1500), were grown in Gibco's RPMI 1640 media supplemented with sodium pyruvate, 10% FBS and 13 ng/mL gentamicin. Cells were incubated at 37° C., 4.5% CO2 and 95.5% humidified air.
(§1) 2. Apoptosis: Cell death detection by ELISA:
(§2) Compounds of formula 1 were tested for the ability to cause apoptosis as follows:
(§3) Cells and media were collected, cells were pelleted, resuspended in 100 μl lysis buffer (50 mM Tris-Cl (pH=8.0), 20 mM EDTA, 1% NP-40e) and incubated 30 minutes at 4° C. to lyse. Cell debris was spun down and an aliquot (30 μl) of the […] was removed for protein determination and stored at -20° C. An additional 280 μl of lysis buffer, was added, mixed thoroughly and spun down at 14,000 RPM for 10 minutes at 4° C. An aliquot was removed (180 μl) and the sample was stored at -20° C. until testing.
(§4) A commercially available apoptosis detection kit, obtained from Boehringer Mannheim (Cat. No. 1544-674), was used as per the directions provided with the kit (Cell Death Detection ELISA). However, the protocol was modified in that a 1:40 to 1:100 dilution of sample was prepared, rather than the recommended 1:10 dilution, due to the increase in cell number used to prepare the sample extract and the subsequent increase in ELISA reactivity. The assay measures apoptosis by quantifying the amount of nucleosomal fragmentation from the extracts of cells treated with the test compounds (samples). These nucleosomal fragments, generated by the activation of endonucleases, are a known downstream effector of apoptosis. Antihistone antibodies are used to fix any nucleosomal fragments in the sample to the well of the microtiter plates. The sample is then incubated with anti-DNA antibodies conjugated to peroxidase and subsequently incubated with the peroxidase substrate, ABTS. The resulting colorimetric change is measured spectrophotometrically at 405/490nm.
(§5) The total protein content of each sample was determined for the purpose of normalizing the ELISA values to amount of sample loaded. Microplate assay protocol described in the instruction manual, for (Biorad DC Assay, Cat.#500-0116) section 5.2. The protein concentrations were calculated based upon a linear regression curve.
(§6) d) ELISA assay calculations
(§7) Relative ELISA O.D. readings are determined by subtracting the ELISA plate background O.D. value. No drug control O.D. value (lysis buffer only) was subtracted from sample O.D. value. A correction coefficient (CC), based on the sample protein concentration compared to no drug control, was determined to correct the sample O.D. following subtraction of the background O.D. (BCS O.D.). The fold increase over no drug control is calculated and normalized to the total protein concentration of the samples by multiplying against the correction coefficient.
(§8) To determine the fold increase in ELISA O.D., obtain the following O.D. measurements:
(§9) ELISA plate background--lysis buffer only (EPB);
(§10) no drug treated control--cell sample treated with DMSO (NDT);
(§11) drug treated sample--cell sample treated with a compound of formula 1 (DT) Subtract EPB from NDT (NDT-EPB) and DT (DT-EPB). The fold increase of the treated over the control is then (DT-EPB)/(NDT-EPB).
(§12) To determine the total protein concentration of the samples, obtain the total protein concentration in mg/ul calculated using standard linear regression formula (y=mx+b) based on BSA standards. B=ELISA background. Protein concentration (PC)(mg/ml)=(sample absorbance-b)/x.
(§13) Correction coefficient (cc) is (NDT)(PC)/(DT)(PC).
(§14) Determine fold increase of ELISA (FT) normalized to total PC:
(§15) nDT is DT×cc (which is DT O.D. normalized to PC)
(§16) nNDT is NDT×cc (which is NDT O.D. normalized to PC)
(§17) FI normalized to PC is nDT/nNDT.

The next data set concerns MDA-435 cells. The data set can be described thus: Apoptosis: cell death detection by ELISA, MDA-435. As to conditions: for fold induction at 1 µM / fold induction at 3.3 µM / fold induction at 10 µM: Homo sapiens; for fold induction at 10 µM / Fold induction of apoptosis, internal positive control (cont.): 10 uM. The data set is classed as cell-based, human. The procedure:
ER- breast carcinoma, human (MDA-435) obtained from Dr. Janet Price, MDA Cancer Center, Houston, Tex., were grown in Gibco's RPMI 1640 media supplemented with sodium pyruvate, 10% FBS and 13 ng/mL gentamicin. Cells were incubated at 37° C., 4.5% CO2 and 95.5% humidified air.
as §1, §2, §3, §4, §5, §6, §7, §8, §9, §10, §11, §12, §13, §14, §15, §16, §17
Background: In an ELISA, binding on a coated surface is turned into a signal by an enzyme label.

Data set [1] has as its system ER+ and ER- breast carcinoma cells. The data set can be described thus: Induction of apoptosis in ER+ and ER- carcinoma cells (statements in words). The data set is classed as cell-based, human. The procedure:
as §1, §2, §3
A commercially available apoptosis detection kit, obtained from Boehringer Mannheim (Cat. No. 1544-674), was used as per the directions provided with the kit (Cell Death Detection ELISA). […] The assay measures apoptosis by quantifying the amount of nucleosomal fragmentation from the extracts of cells treated with the test compounds (samples). […] The resulting colorimetric change is measured spectrophotometrically at 405/490nm.
The total protein content of each sample was determined for the purpose of normalizing the ELISA values to amount of sample loaded. […] The protein concentrations were calculated based upon a linear regression curve. […]
Relative ELISA O.D. readings are determined by subtracting the ELISA plate background O.D. value. […] A correction coefficient (CC), based on the sample protein concentration compared to no drug control, was determined to correct the sample O.D. following subtraction of the background O.D. (BCS O.D.). The fold increase over no drug control is calculated and normalized to the total protein concentration of the samples by multiplying against the correction coefficient. […]
To determine the total protein concentration of the samples, obtain the total protein concentration in mg/ul calculated using standard linear regression formula (y=mx+b) based on BSA standards. […] Protein concentration (PC)(mg/ml)=(sample absorbance-b)/x. […]

The test system of another data set is human carcinoma cells. As to conditions: in vitro; cited from earlier work.
A further data set has as its system RKO cells. The data set can be described thus: Apoptosis: cell death detection by ELISA, RKO (colorectal carcinoma). The data set is classed as cell-based, human. To be noted: Homo sapiens, RKO, 10 uM, read-out: Fold induction of apoptosis, internal positive control (cont.). The procedure: Colorectal carcinoma, human (RKO) obtained from Dr. Bernie Vogelstein, were grown in Gibco's Delbecco Minimum Essential media (DMEM), high glucose, supplemented with sodium pyruvate, 10% FBS and 13 ng/mL gentamicin. Cells were incubated at 37° C., 4.5% CO2 and 95.5% humidified air.
as §1, §2, §3, §4, §5, §6, §7, §8, §9, §10, §11, §12, §13, §14, §15, §16, §17

The subject of a further data set is H1299 cells. The data set can be described thus: Apoptosis: cell death detection by ELISA, H1299 (lung large cell carcinoma). The data set is classed as cell-based. As to conditions: Homo sapiens, NCI-H1299, 10 uM, read-out: Fold induction of apoptosis, internal positive control (cont.). The procedure: Lung, large cell carcinoma, human (H1299), obtained from ATCC (CRL-5803), were grown in Gibco's Delbecco Minimum Essential media (DMEM), high glucose, supplemented with sodium pyruvate, 10% FBS and 13 ng/mL gentamicin. Cells were incubated at 37° C., 4.5% CO2 and 95.5% humidified air.
as §1, §2, §3, §4, §5, §6, §7, §8, §9, §10, §11, §12, §13, §14, §15, §16, §17

A further data set relates to tumors. As to conditions: 9-cis RA and its analogs; cited from earlier work.
Data set [2] relates to retinoic acid X α, β and γ receptors (RXR). As to conditions: cited from earlier work.
The test system of a further data set is RAR α, β and γ receptors. To be noted: cited from earlier work.
The mark [3] stands for this setting: ZR-75-1, 24 h, 24 hrs, read-out: Fold induction of apoptosis compared to no drug control.
The mark [4] stands for this setting: ZR-75-1, 48 h, 48 hrs, read-out: Fold induction of apoptosis compared to no drug control.
The mark [5] stands for this setting: ZR-75-1, 72 h, 72 hrs, read-out: Fold induction of apoptosis compared to no drug control.
Setting [6] is: MDA435, 24 h, 24 hrs, read-out: Fold induction of apoptosis compared to no drug control.
Setting [7] is: MDA435, 48 h, 48 hrs, read-out: Fold induction of apoptosis compared to no drug control.
Setting [8] is: MDA435, 72 h, 72 hrs, read-out: Fold induction of apoptosis compared to no drug control.

Like-named read-outs stand apart in the source and are kept apart here.

Take `CC1=C(/C=C/C(C)=C/C=C/C(C)=C/C(=O)O)C(C)(C)CCC1` [All-trans RA]: in the data set with tumor cells, the “Ability to induce apoptosis (in words)” value is recorded as “very limited” and the “Differentiation of certain tumor cells (in words)” value is “cause differentiation of certain tumor cells in vitro”.

On to `C/C(=C/C=C/C(C)=C/C(=O)O)c1cc(C(F)(F)F)cc(C(F)(F)F)c1` [(2E,4E,6Z)-7-[3,5-bis(trifluoromethyl)phenyl]-3,7-dimethyl-2,4,6-heptatrienoic acid], for which the fold induction at 1 µM in the data set with ZR-75-1 cells (setting [3]), in the data set on ZR-75-1 cells (setting [4]), in the data set on ZR-75-1 cells (setting [5]), with MDA-435 cells (setting [6]), with MDA-435 cells (setting [7]) and in the data set with MDA-435 cells (setting [8]) was 1 each time. Moreover, the fold induction at 3.3 µM with ZR-75-1 cells (setting [3]), with ZR-75-1 cells (setting [4]), in the data set on ZR-75-1 cells (setting [5]), in the data set with MDA-435 cells (setting [6]), with MDA-435 cells (setting [7]) and in the data set with MDA-435 cells (setting [8]) was 1 in each case. Further, the fold induction at 10 µM in the data set on ZR-75-1 cells (ZR-75-1, 24 h, 24 hrs, 10 uM, read-out: Fold induction of apoptosis compared to no drug control) worked out at 1; in the data set on ZR-75-1 cells (ZR-75-1, 48 h, 48 hrs, 10 uM, read-out: Fold induction of apoptosis compared to no drug control), 1; with ZR-75-1 cells (ZR-75-1, 72 h, 72 hrs, 10 uM, read-out: Fold induction of apoptosis compared to no drug control), 2; with MDA-435 cells (setting [6]) it was 1; in the data set with MDA-435 cells (setting [7]), 1; in the data set on MDA-435 cells (setting [8]), 2. Also, the “Induction of apoptosis (in words)” value in data set [1] (72 h, compared with the corresponding amide) is “induces considerably lower amounts apoptosis only after 72 h”. The “Activity against ER- and ER+ carcinoma cells (induction of apoptosis)” value in data set [1] (ER- and ER+ carcinoma cells) is “inactive”.

For `CC(=O)O[C@H]1C(=O)[C@@]2(C)[C@H]([C@H](OC(=O)c3ccccc3)[C@]3(O)C[C@H](OC(=O)[C@H](O)[C@@H](NC(=O)c4ccccc4)c4ccccc4)C(C)=C1C3(C)C)[C@]1(OC(C)=O)CO[C@@H]1C[C@@H]2O` [Taxol], the “Induction of apoptosis in human carcinoma cells (in words)” value with human carcinoma cells was “induce apoptosis”.

Consider `CC1=C(/C=C/C(C)=C\C=C\C(C)=C\C(=O)Nc2ccc(O)cc2)C(C)(C)CCC1` [9-cis 4-HPR, reference compound], for which the “Fold induction of apoptosis, internal positive control (cont.)” value in the data set on ZR-75-1 cells (24 hrs, 10 uM, 1440 min) is recorded as 2 fold; in the data set on MDA-435 cells (48 hrs, 2880 min), 10 fold; in the data set with MDA-435 cells (72 hrs, 4320 min), 12 fold. The fold induction at 10 µM turned out to be 1 in the data set with ZR-75-1 cells (ZR-75-1, 24 h, 24 hrs, 10 uM, read-out: Fold induction of apoptosis, internal positive control (cont.)); 15 in the data set with MDA-435 cells (MDA435, 48 h, 48 hrs, read-out: Fold induction of apoptosis, internal positive control (cont.)); 19 in the data set on MDA-435 cells (MDA435, 72 h, 72 hrs, read-out: Fold induction of apoptosis, internal positive control (cont.)); 8 in the data set on RKO cells (24 hrs); 9 in the data set with RKO cells (48 hrs); 5 with RKO cells (72 hrs). Besides, the fold induction at 10 µM is 1 with H1299 cells (24 hrs), 15 in the data set with H1299 cells (48 hrs) and 25 with H1299 cells (72 hrs).

On to `CC1=C(/C=C/C(C)=C\C=C\C(C)=C\C(=O)O)C(C)(C)CCC1` [9-cis RA], for which, in the data set with tumors, the “Tumor regression (in words)” value is listed as “cause tumor regression”. Further, the “Binding to RXR (in words)” value in data set [2] is “bind”. For the same molecule, in the data set with RAR α, β and γ receptors, the “Binding to RAR (in words)” value is “bind”.

For `O=c1[nH]cc(F)c(=O)[nH]1` [5FU], in the data set with human carcinoma cells, the “Induction of apoptosis in human carcinoma cells (in words)” value was “induce apoptosis”.

`COc1cccc2c1C(=O)c1c(O)c3c(c(O)c1C2=O)C[C@@](O)(C(=O)CO)C[C@@H]3O[C@H]1C[C@H](N)[C@H](O)[C@H](C)O1` [Adriamycin]: the “Induction of apoptosis in human carcinoma cells (in words)” value in the data set on human carcinoma cells is given as “induce apoptosis”.

Consider `CC1=C(/C=C/C(C)=C/C=C/C(C)=C\C(=O)O)C(C)(C)CCC1` [13-cis RA], for which, in the data set on tumor cells, the “Ability to induce apoptosis (in words)” value was “very limited” and the “Differentiation of certain tumor cells (in words)” value is listed as “cause differentiation of certain tumor cells in vitro”.
